Laboratory results from PMC11637875, “Discovery of novel PARP1/NRP1 dual-targeting inhibitors with strong antitumor potency” (Frontiers in Pharmacology, 2024).

Legend:
[1] = biological target: Erk1 (Homo sapiens, UniProt P27361); assay: Selectivity profile (123 kinase panel); assay type: biochemical
[2] = biological target: CaMK1α (Homo sapiens, UniProt Q14012); assay: Selectivity profile (123 kinase panel); assay type: biochemical
[3] = biological target: DYRK2 (Homo sapiens, UniProt Q92630); assay: Selectivity profile (123 kinase panel); assay type: biochemical
[4] = biological target: CK1γ2 (Homo sapiens, UniProt P78368); assay: Selectivity profile (123 kinase panel); assay type: biochemical
[5] = biological target: CaMK2α (Homo sapiens, UniProt Q9UQM7); assay: Selectivity profile (123 kinase panel); assay type: biochemical
[6] = biological target: BMX (Homo sapiens, UniProt P51813); assay: Selectivity profile (123 kinase panel); assay type: biochemical
[7] = biological target: LOK (Homo sapiens, UniProt O94804); assay: Selectivity profile (123 kinase panel); assay type: biochemical
[8] = test system: MDA-MB-231 xenograft tumor; assay: In vivo antitumor assay; set-up: species or system BALB/c nude mice; conditions: for body weight (g) in mice, mean / tumor volume (mm^3), mean: 5 mg/kg intraperitoneally every 3 days, n = 6
Experimental: Twenty-four female BALB/c nude mice (body weight 16–20 g) at 4–6 weeks old were purchased from Changzhou Cavens Experimental Animal Limited Company (Changzhou, China). Mice were adaptively housed for 1 week in a specific pathogen-free (SPF) environment with a temperature of 25°C ± 2°C, a 12-hour light/dark cycle, and free access to food and water. MDA-MB-231 breast cancer cells (200 μL, 1×10^7 cells) were suspended in PBS to formulate cell suspension, and 0.1 mL of cells were injected into the axilla of the left forelimb of mice by subcutaneous injection. […] Equal concentrations of drug-free PBS buffer were used for the vehicle group. Each group was administered every 3 days and the body weight and tumor size of the mice were recorded. Mice were executed when the tumor volume approached 2000 mm^3. Tumor volumes of all mice were measured using vernier calipers. The mice were placed belly up and the longest diameter of the tumor was measured with the inner bayonet of a vernier caliper, and the shortest transverse diameter perpendicular to the diameter was measured with the inner bayonet of a vernier caliper and recorded. Tumor volume was estimated according to the following formula: (c × c × d)/2 (c, the smallest diameter; d, the largest diameter). All animal experiments were performed and approved by the Ethics Committee of China Pharmaceutical University.

[9] = biological target: AKT3 (Homo sapiens, UniProt Q9Y243); assay: Selectivity profile (123 kinase panel); assay type: biochemical
[10] = biological target: DCAMKL2 (Homo sapiens, UniProt Q8N568); assay: Selectivity profile (123 kinase panel); assay type: biochemical
[11] = biological target: NuaK2 (Homo sapiens, UniProt Q9H093); assay: Selectivity profile (123 kinase panel); assay type: biochemical
[12] = biological target: AurC (Homo sapiens, UniProt Q9UQB9); assay: Selectivity profile (123 kinase panel); assay type: biochemical
[13] = biological target: ALK4 (Homo sapiens, UniProt P36896); assay: Selectivity profile (123 kinase panel); assay type: biochemical
[14] = biological target: EPHA7 (Homo sapiens, UniProt Q15375); assay: Selectivity profile (123 kinase panel); assay type: biochemical
[15] = biological target: PARP2 (Homo sapiens, UniProt Q9UGN5); assay: Selectivity profile (other isoforms of PARP and NRP family); assay type: biochemical
[16] = biological target: EPHA6 (Homo sapiens, UniProt Q9UF33); assay: Selectivity profile (123 kinase panel); assay type: biochemical
[17] = biological target: T1, PARP1 (Homo sapiens, UniProt P09874); assay: Microscale thermophoresis (MST) assay; assay type: binding; conditions: labeled protein 50 nM, read-out: PARP1 (K d)
T1 construct: purchased Abcam
Experimental: (§1) All samples were diluted in 1 × PBST. […] Affinity Analysis software.

[18] = biological target: T2, NRP1 (Homo sapiens, UniProt O14786); assay: Microscale thermophoresis (MST) assay; assay type: binding; conditions: labeled protein 50 nM, read-out: NRP1 (K d)
T2 construct: purchased Abcam
T2 sequence (O14786 22-644 isoform O14786-2 limits assumed): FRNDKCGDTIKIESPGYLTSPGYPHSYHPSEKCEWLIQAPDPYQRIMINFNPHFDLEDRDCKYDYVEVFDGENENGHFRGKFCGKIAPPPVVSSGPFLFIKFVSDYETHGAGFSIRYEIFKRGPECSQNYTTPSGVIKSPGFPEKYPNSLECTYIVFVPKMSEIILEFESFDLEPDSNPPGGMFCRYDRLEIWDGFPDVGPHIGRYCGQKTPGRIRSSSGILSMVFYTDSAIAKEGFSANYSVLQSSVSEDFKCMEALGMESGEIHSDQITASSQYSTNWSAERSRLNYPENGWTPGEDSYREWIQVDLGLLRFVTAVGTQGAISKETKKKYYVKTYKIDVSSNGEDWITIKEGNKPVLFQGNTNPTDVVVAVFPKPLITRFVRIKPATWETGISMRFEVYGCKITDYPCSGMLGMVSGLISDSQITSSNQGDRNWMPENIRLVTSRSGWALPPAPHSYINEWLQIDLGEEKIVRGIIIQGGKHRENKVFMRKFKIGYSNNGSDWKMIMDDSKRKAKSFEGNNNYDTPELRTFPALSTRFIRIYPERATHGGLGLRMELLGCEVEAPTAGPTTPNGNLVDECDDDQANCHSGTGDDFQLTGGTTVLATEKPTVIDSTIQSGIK
Experimental: as §1

[19] = biological target: CHK2 (Homo sapiens, UniProt O96017); assay: Selectivity profile (123 kinase panel); assay type: biochemical
[20] = biological target: FES (Homo sapiens, UniProt P07332); assay: Selectivity profile (123 kinase panel); assay type: biochemical
Sequence of FES (P07332 whole entry, species assumed): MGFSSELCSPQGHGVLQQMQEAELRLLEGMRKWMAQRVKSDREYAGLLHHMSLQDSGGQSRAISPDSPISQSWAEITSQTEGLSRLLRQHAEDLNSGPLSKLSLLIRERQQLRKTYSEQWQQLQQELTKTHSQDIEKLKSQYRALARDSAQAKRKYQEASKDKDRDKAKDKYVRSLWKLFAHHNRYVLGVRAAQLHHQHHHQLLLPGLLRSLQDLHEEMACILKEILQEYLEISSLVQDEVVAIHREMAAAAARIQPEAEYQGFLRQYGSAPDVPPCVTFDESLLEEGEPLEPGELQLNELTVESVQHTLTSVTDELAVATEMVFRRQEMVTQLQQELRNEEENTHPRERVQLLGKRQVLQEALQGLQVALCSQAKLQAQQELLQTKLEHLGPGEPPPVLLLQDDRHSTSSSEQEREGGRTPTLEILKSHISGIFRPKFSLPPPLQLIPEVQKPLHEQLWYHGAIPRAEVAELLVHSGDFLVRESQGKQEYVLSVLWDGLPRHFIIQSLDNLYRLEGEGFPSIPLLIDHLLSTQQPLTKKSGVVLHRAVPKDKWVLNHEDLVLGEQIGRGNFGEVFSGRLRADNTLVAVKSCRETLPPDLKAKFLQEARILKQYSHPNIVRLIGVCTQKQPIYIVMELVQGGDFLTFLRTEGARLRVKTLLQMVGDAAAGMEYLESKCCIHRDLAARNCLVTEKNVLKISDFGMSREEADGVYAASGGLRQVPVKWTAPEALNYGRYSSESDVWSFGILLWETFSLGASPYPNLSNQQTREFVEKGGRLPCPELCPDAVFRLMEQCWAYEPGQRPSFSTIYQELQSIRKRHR

Sequence of ALK4 (P36896 24-505): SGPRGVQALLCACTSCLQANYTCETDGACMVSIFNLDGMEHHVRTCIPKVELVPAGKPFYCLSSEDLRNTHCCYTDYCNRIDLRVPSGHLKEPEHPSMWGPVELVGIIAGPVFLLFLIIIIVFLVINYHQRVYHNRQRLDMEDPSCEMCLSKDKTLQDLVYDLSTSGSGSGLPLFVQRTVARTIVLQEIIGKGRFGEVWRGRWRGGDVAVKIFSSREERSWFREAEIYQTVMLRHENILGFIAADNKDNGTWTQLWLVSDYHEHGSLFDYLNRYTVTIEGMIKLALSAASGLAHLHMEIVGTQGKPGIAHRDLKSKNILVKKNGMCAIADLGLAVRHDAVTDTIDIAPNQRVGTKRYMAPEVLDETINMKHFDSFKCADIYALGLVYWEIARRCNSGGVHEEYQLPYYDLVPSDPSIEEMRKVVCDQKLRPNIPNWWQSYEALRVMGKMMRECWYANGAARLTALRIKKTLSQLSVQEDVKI
Sequence of AKT3 (Q9Y243 whole entry): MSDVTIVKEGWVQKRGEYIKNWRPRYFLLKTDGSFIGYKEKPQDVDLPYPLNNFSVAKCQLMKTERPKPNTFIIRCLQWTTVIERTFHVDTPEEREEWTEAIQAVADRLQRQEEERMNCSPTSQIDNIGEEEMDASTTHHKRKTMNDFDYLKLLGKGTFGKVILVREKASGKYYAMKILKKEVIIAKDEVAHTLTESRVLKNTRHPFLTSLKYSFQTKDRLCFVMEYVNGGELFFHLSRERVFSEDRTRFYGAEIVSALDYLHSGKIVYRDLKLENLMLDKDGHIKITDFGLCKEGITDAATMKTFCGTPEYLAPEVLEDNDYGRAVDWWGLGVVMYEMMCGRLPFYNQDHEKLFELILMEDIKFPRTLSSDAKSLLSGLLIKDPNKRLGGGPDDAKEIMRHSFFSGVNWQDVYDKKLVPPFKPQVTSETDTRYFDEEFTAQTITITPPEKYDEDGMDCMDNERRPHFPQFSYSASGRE
Sequence of DYRK2 (Q92630 whole entry): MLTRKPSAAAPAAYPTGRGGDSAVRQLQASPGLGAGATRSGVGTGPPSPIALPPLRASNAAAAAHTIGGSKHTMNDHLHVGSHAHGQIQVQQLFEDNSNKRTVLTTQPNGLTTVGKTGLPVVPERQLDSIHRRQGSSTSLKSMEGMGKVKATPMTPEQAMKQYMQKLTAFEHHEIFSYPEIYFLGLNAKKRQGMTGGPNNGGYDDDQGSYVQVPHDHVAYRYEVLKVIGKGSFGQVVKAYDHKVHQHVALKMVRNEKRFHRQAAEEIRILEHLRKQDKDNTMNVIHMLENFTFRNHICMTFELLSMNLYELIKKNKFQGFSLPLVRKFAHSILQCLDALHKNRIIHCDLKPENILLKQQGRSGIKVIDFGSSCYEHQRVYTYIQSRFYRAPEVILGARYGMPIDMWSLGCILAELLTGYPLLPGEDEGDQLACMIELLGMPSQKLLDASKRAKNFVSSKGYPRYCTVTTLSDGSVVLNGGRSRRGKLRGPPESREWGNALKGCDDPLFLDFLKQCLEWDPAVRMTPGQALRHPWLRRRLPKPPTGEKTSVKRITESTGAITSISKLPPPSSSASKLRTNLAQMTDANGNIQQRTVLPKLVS
Sequence of PARP2 (Q9UGN5 whole entry, canonical isoform): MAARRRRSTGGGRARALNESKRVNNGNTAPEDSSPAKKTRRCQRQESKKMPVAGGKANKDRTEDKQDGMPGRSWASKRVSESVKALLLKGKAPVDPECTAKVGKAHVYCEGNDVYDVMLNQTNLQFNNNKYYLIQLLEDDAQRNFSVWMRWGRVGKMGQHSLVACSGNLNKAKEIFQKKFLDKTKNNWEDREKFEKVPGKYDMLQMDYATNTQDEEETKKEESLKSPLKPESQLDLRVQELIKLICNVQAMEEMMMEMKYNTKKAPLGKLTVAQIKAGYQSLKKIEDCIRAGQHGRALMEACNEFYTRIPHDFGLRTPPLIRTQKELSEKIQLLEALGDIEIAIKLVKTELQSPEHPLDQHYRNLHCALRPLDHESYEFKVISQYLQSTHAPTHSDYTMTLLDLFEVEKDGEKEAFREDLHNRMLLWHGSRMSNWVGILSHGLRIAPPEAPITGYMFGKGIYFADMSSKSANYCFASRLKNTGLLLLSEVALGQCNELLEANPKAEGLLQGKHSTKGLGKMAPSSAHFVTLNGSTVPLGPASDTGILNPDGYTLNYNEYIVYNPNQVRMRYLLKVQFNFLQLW
Sequence of CaMK1α (Q14012 whole entry): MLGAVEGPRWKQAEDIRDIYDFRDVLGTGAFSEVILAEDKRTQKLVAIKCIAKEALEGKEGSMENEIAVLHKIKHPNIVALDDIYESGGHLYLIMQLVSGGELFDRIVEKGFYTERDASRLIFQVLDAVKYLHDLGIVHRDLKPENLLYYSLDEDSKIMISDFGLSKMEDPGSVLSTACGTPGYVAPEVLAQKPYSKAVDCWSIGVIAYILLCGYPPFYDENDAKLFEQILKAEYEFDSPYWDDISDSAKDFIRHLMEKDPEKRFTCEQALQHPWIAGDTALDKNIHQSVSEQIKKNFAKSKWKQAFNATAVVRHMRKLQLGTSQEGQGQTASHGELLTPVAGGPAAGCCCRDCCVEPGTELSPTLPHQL
Sequence of Erk1 (P27361 whole entry, species assumed): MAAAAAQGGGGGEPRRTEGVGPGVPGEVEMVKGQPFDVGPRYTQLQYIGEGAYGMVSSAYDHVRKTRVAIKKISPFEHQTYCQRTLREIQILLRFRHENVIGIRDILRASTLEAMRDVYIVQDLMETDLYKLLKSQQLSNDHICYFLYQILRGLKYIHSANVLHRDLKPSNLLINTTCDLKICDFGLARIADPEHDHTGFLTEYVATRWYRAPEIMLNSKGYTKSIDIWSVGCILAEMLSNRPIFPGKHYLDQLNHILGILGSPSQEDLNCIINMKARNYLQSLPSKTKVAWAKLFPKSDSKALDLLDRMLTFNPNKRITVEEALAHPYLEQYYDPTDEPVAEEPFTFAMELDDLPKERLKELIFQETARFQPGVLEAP
Sequence of CHK2 (O96017 whole entry): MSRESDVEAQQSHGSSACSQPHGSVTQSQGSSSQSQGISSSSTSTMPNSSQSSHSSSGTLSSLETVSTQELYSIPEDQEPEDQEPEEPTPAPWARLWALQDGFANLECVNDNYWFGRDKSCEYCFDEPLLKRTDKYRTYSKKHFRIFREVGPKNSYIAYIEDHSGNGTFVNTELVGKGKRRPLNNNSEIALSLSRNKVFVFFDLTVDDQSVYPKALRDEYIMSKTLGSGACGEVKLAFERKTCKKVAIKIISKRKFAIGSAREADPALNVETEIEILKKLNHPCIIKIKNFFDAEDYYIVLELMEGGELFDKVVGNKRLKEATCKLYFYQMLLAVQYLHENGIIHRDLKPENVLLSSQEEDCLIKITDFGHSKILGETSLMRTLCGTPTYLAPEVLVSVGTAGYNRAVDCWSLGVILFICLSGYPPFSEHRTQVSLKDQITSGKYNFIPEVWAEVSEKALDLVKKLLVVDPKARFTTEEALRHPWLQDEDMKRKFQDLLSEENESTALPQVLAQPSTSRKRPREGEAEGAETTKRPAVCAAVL
Sequence of DCAMKL2 (Q8N568 whole entry): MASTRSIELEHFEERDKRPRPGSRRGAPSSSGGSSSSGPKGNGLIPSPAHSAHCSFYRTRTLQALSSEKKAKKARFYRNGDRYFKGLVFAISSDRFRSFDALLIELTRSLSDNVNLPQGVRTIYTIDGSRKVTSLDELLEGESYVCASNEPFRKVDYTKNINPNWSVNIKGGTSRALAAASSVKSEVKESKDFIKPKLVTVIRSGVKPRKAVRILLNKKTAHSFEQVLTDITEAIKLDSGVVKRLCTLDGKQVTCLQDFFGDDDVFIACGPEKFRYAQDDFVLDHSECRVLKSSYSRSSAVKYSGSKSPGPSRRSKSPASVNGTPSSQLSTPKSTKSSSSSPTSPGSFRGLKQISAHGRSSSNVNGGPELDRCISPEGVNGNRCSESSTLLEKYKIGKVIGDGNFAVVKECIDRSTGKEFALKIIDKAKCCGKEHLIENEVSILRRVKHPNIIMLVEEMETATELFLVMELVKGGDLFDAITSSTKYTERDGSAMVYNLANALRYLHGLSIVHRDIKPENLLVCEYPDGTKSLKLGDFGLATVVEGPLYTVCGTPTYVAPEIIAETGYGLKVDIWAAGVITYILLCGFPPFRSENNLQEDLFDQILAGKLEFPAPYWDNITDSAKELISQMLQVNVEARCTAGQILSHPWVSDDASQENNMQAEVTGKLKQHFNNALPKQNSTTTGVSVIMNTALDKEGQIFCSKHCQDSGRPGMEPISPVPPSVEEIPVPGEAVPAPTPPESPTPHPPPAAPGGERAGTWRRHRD

NC(N)=NCCC[C@H](NCN1CCN(C(=O)c2cc(Cc3n[nH]c(=O)c4ccccc34)ccc2F)CC1)C(=O)O [PPNR-4]
IC50 [1]: > 10 µM
IC50 [2]: > 10 µM
IC50 [3]: > 10 µM
IC50 [4]: > 10 µM
IC50 [5]: > 10 µM
IC50 [6]: > 10 µM
IC50 [7]: > 10 µM
inhibitory effect on tumor volume growth ([8]; 5 mg/kg, in comparison to the olaparib or EG00229-treated groups): more remarkable inhibitory effect on tumor volume growth
body weight (g) in mice, mean ([8]; day 0): 18.41 g
tumor volume (mm^3), mean ([8]; day 0): 99 mm^3
body weight (g) in mice, mean ([8]; day 3): 18.62 g
tumor volume (mm^3), mean ([8]; day 3): 155 mm^3
body weight (g) in mice, mean ([8]; day 6): 18.85 g
tumor volume (mm^3), mean ([8]; day 6): 196 mm^3
body weight (g) in mice, mean ([8]; day 9): 19.07 g
tumor volume (mm^3), mean ([8]; day 9): 253 mm^3
body weight (g) in mice, mean ([8]; day 12): 19.33 g
tumor volume (mm^3), mean ([8]; day 12): 226 mm^3
IC50 [9]: > 10 µM
IC50 [10]: > 10 µM
IC50 [11]: > 10 µM
IC50 [12]: > 10 µM
IC50 [13]: > 10 µM
IC50 [14]: > 10 µM
IC50 [15]: > 10 µM
IC50 [16]: > 10 µM
Kd [17]: 0.00715 µM
Kd [18]: 0.0166 µM
IC50 [19]: > 10 µM
IC50 [20]: > 10 µM
